Consider 27 molecules from US11161828B2, “Class of bisquaternary ammonium compound as well as the preparative method and the use thereof” (WEST CHINA HOSPITAL, SICHUAN UNIVERSITY, priority 2018, dated 2021).

Some results are limits rather than exact numbers.

The subject of assay [1] is Male New Zealand white rabbits. Kind of assay: Muscle relaxation test in anesthetized rabbits with neuromuscular transmission monitor (TOF). The settings on record: for ED (2 x ED95): Oryctolagus cuniculus; for ED (2 x ED95) / 2 × ED95: intravenous injection, propofol general anesthesia; for Onset time / Recovery time: i.v. 2×ED95 dose; for Onset time: onset = TOF=0; for Recovery time: recovery of muscle relaxation = TOF=90%. The assay is classed as in vivo, rabbit. As to the method: Male New Zealand white rabbits weighing 2-3.5 kg were used as experimental animals for muscle relaxation test. The specific procedures were as follows: propofol emulsion was used to induce and maintain general anesthesia (induction dose: 10 mg/kg; maintenance dose: […]). Tracheal intubation was carried out and respiratory support was used.

Assay [2] has as its system human body. As to conditions: cited from earlier work; for duration of muscle relaxation / action time: after single administration, clinical use.

`C[N+](CCOC(=O)OCOC(=O)CCC[N+]1(Cc2ccccc2Br)CCCCC1)(Cc1ccccc1Br)Cc1ccccc1Br` [Compound 8]: in assay [1] (iv), the ED (2 x ED95) worked out at 1.2 mg/kg. Further, in assay [1], the Onset time was less than 40 s and the Recovery time stood at 7.2 ± 1.8 min.
Turning to `CC(OC(=O)CCC[N+]1(Cc2ccc(Cl)cc2Cl)CCCCC1)OC(=O)OCC[N+](C)(Cc1ccc(Cl)cc1)Cc1ccc(Cl)c(Cl)c1` (stereo not drawn) [Compound 11], in assay [1], the Onset time was less than 40 s, the Recovery time was 6.7 ± 2.6 min and the “2 × ED95” value is 0.5 mg/kg.
`COc1ccc(C[N+](C)(CCCC(C)OC(=O)OC(C)OC(=O)C[N+]2(Cc3ccc(OC)c(OC)c3)CCCCC2)Cc2ccc(OC)c(OC)c2)cc1OC` (stereo not drawn) [Compound 25] yielded an ED (2 x ED95) in assay [1] (iv) of 1.4 mg/kg. Besides, in assay [1], the Onset time is on record as less than 40 s and the Recovery time worked out at 8.1 ± 2.9 min.
Take `COc1ccc(C[N+](C)(Cc2ccc(OC)c(OC)c2)CC(C)OC(=O)OC(C)OC(=O)CCC[N+]2(Cc3ccc(OC)c(OC)c3)CCCCC2)cc1OC` (stereo not drawn) [Compound 23]: the ED (2 x ED95) in assay [1] (iv) was 1.2 mg/kg. Also, in assay [1], the Onset time is listed as less than 40 s and the Recovery time was determined as 7.8 ± 2.4 min.
In assay [1], `C[N+](CCCCOC(=O)OCOC(=O)C[N+]1(Cc2ccc([N+](=O)[O-])cc2)CCCCC1)(Cc1ccc([N+](=O)[O-])cc1)Cc1ccc(Cl)cc1Cl` (stereo not drawn) [Compound 21] gave an ED (2 x ED95) of 4 mg/kg, an Onset time of less than 40 s and a Recovery time of 5.1 ± 1.1 min.
With `C[N+](C)(C)CCOC(=O)CCC(=O)OCC[N+](C)(C)C` [Succinylcholine, reference compound], in assay [1] (iv), the ED (2 x ED95) worked out at 1.8 mg/kg. In addition, in assay [1], the Onset time is recorded as less than 40 s and the Recovery time is listed as 12.3 ± 4.1 min. The “action time (lasts for)” value in assay [2] (in the human body) is 10 min.
As for `C[N+](CCOC(=O)OCOC(=O)CCC[N+]1(Cc2ccc([N+](=O)[O-])cc2)CCCCC1)(Cc1ccccc1)Cc1ccccc1` [Compound 19], in assay [1], the ED (2 x ED95) is 2.2 mg/kg, the Onset time is less than 40 s and the Recovery time is 7.1 ± 1.2 min.
In assay [1], `C[N+](CCOC(=O)OCOC(=O)CCC[N+]1(Cc2ccccc2)CCCCC1)(Cc1ccccc1)Cc1ccc([N+](=O)[O-])cc1` (stereo not drawn) [Compound 18] had an ED (2 x ED95) of 1.9 mg/kg, an Onset time of less than 40 s and a Recovery time of 7.2 ± 2.7 min.
In assay [1] (iv), `CC(OC(=O)CCC[N+]1(Cc2ccc(Cl)cc2Cl)CCCCC1)OC(=O)OCC[N+](C)(Cc1ccc(Cl)cc1)Cc1ccc(Cl)c(Cl)c1` (stereo not drawn) [Compound 9] displayed an ED (2 x ED95) of 0.6 mg/kg. In addition, in assay [1], the Onset time is recorded as less than 40 s and the Recovery time worked out at 4.2 ± 1.1 min.
For `CC(OC(=O)CCC[N+]1(Cc2ccc(Cl)cc2Cl)CCCCC1)OC(=O)OCC[N+](C)(Cc1ccc(Cl)cc1)Cc1ccc(Cl)c(Cl)c1` (stereo not drawn) [Compound 10], in assay [1], the Onset time is reported as less than 40 s, the Recovery time was determined as 4.2 ± 0.9 min and the “2 × ED95” value is reported as 0.7 mg/kg.
`C[N+](CCOC(=O)OCOC(=O)CCC[N+]1(Cc2ccc(Br)cc2)CCCCC1)(Cc1ccc(Br)cc1)Cc1ccc(Br)cc1` [Compound 7]: in assay [1], the ED (2 x ED95) came to 1.2 mg/kg, the Onset time is less than 40 s and the Recovery time turned out to be 5.2 ± 2.1 min.
The matching figures for `C[N+](CCOC(=O)OCOC(=O)CCC[N+]1(Cc2ccccc2)CCCCC1)(Cc1ccccc1)Cc1ccccc1` [Compound 20]: 2.4 mg/kg, less than 40 s and 6.9 ± 2.5 min.
On to `CC(=O)O[C@H]1C[C@@H]2CC[C@@H]3[C@H](CC[C@@]4(C)[C@H]3C[C@H]([N+]3(C)CCCCC3)[C@@H]4OC(C)=O)[C@@]2(C)C[C@@H]1[N+]1(C)CCCCC1` [pancuronium], for which, in assay [2], the “duration of muscle relaxation / action time” value was greater than 60 min.
In assay [1], `C[N+](CCOC(=O)OCOC(=O)CCC[N+]1(Cc2ccc([N+](=O)[O-])cc2)CCCCC1)(Cc1ccc(Br)cc1)Cc1ccc([N+](=O)[O-])cc1` (stereo not drawn) [Compound 15] returned an ED (2 x ED95) of 1.9 mg/kg, an Onset time of less than 40 s and a Recovery time of 5.3 ± 2.1 min.
In assay [1], `CC(OC(=O)CCC[N+]1(Cc2ccc([N+](=O)[O-])cc2)CCCCC1)OC(=O)OCC[N+](C)(Cc1ccccc1)Cc1ccc([N+](=O)[O-])cc1` (stereo not drawn) [Compound 14] yielded an ED (2 x ED95) of 2.4 mg/kg, an Onset time of less than 40 s and a Recovery time of 4.2 ± 1.2 min.
In assay [1], `C[N+](CCOC(=O)OCOC(=O)CCC[N+]1(Cc2ccc(Br)c(Br)c2)CCCCC1)(Cc1ccc(Br)cc1)Cc1cccc(Cl)c1Cl` (stereo not drawn) [Compound 3] had an ED (2 x ED95) of 1.3 mg/kg, an Onset time of less than 40 s and a Recovery time of 3.8 ± 0.4 min.
As for `C[N+](CCOC(=O)OCOC(=O)CCC[N+]1(Cc2ccc([N+](=O)[O-])cc2[N+](=O)[O-])CCCCC1)(Cc1ccc([N+](=O)[O-])cc1)Cc1ccc([N+](=O)[O-])cc1` [Compound 5], in assay [1], the ED (2 x ED95) was found to be 0.4 mg/kg, the Onset time is less than 40 s and the Recovery time is recorded as 6.2 ± 1.4 min.
Taken in the same sequence, the figures for `C[N+](CCOC(=O)OCOC(=O)CCC[N+]1(Cc2c(F)c(F)c(F)c(F)c2F)CCCCC1)(Cc1c(F)c(F)c(F)c(F)c1F)Cc1c(F)c(F)c(F)c(F)c1F` [Compound 6] were 0.9 mg/kg, less than 40 s and 5.1 ± 2.1 min.
Take micuronium: the “duration of muscle relaxation / action time” value in assay [2] is 15 to 20 min.
`COc1ccc(C[C@@H]2c3cc(OC)c(OC)cc3CC[N@+]2(C)CCC(=O)OCCCCCOC(=O)CC[N@@+]2(C)CCc3cc(OC)c(OC)cc3[C@H]2Cc2ccc(OC)c(OC)c2)cc1OC` [Cisatracurium, reference compound]: in assay [1], the ED (2 x ED95) was 0.08 mg/kg, the Onset time is on record as greater than 120 s and the Recovery time is 17.6 ± 3.2 min.
In assay [1], `C[N+](CCOC(=O)OCOC(=O)CCC[N+]1(Cc2ccc([N+](=O)[O-])cc2)CCCCC1)(Cc1ccccc1)Cc1ccc([N+](=O)[O-])cc1` (stereo not drawn) [Compound 13] returned an ED (2 x ED95) of 2.1 mg/kg, an Onset time of less than 40 s and a Recovery time of 7.9 ± 1.9 min.
In assay [1], `C[N+](CCOC(=O)OCOC(=O)CCC[N+]1(Cc2c(F)cc(F)cc2F)CCCCC1)(Cc1ccc(F)cc1)Cc1c(F)cc(F)cc1F` (stereo not drawn) [Compound 4] yielded an ED (2 x ED95) of 0.4 mg/kg, an Onset time of less than 40 s and a Recovery time of 4.4 ± 0.5 min.
The molecule `CC(C[N+](C)(Cc1ccccc1)Cc1ccc([N+](=O)[O-])cc1)OC(=O)OCOC(=O)CCC[N+]1(Cc2ccc([N+](=O)[O-])cc2)CCCCC1` (stereo not drawn) [Compound 22] yielded an ED (2 x ED95) in assay [1] (iv) of 1.2 mg/kg. In assay [1], this molecule showed an Onset time of less than 40 s and a Recovery time of 6.2 ± 1.4 min.
As to `COc1ccc(C[N+](C)(CCCCOC(=O)OC(C)OC(=O)C[N+]2(Cc3ccc(OC)c(OC)c3)CCCCC2)Cc2ccc(OC)c(OC)c2)cc1OC` (stereo not drawn) [Compound 24], in assay [1] (iv), the ED (2 x ED95) is 1.4 mg/kg. In assay [1], this molecule showed an Onset time of less than 40 s and a Recovery time of 8.4 ± 1.9 min.
In assay [1], `C[N+](CCOC(=O)OCOC(=O)CCC[N+]1(Cc2ccc(Cl)cc2Cl)CCCCC1)(Cc1ccc(Cl)cc1)Cc1ccc(Cl)c(Cl)c1` (stereo not drawn) [Compound 1] gave an ED (2 x ED95) of 0.5 mg/kg, an Onset time of less than 40 s and a Recovery time of 4.2 ± 1.1 min.
The matching figures for `C[N+](CCOC(=O)OCOC(=O)CCC[N+]1(Cc2ccc([N+](=O)[O-])cc2)CCCCC1)(Cc1ccc([N+](=O)[O-])cc1)Cc1ccc(Cl)c(Cl)c1` (stereo not drawn) [Compound 16]: 2.2 mg/kg, less than 40 s and 5.2 ± 1.1 min.
In assay [1], `C[N+](CCOC(=O)OCOC(=O)CCC[N+]1(Cc2ccc([N+](=O)[O-])cc2)CCCCC1)(Cc1ccc([N+](=O)[O-])cc1)Cc1ccc([N+](=O)[O-])cc1` [Compound 12] showed an ED (2 x ED95) of 1.8 mg/kg, an Onset time of less than 40 s and a Recovery time of 8.1 ± 0.2 min.
